From US20250206761A1, “HALOINDOLE MACROCYCLIC COMPOUNDS FOR THE TREATMENT OF CANCER” (Hoffmann-La Roche Inc., priority 2022, published 2025)

Columns and labels:
[1] = molecular target: KRAS G12C-BRAF complex (Homo sapiens (Human), UniProt P01116+P62937, G12C); assay: KRAS-BRAF with CYPA (500 nM) interaction assay (TR-FRET), G12C; assay type: biochemical
Procedure: (§1) In this example, TR-FRET was also used to measure the compound or compound-CYPA dependent disruption of the KRAS G12C-BRAF complex. This protocol was also used to measure disruption of KRAS G12D or KRAS G12V binding to BRAF by a compound of the invention, respectively. In assay buffer containing 25 mM HEPES PH=7.4 (4-(2-hydroxyethyl)-1-piperazineethanesulfonic acid, Thermo, 15630080), 0.002% Tween20, 0.1% BSA, 100 mM NaCl, 5 mM MgCl2, 10 μM GMPPNP (Guanosine 5′-[β,γ-imido]triphosphate trisodium salt hydrate, Sigma, G0635), […] 384-well assay plate at final concentrations of 50 nM, 6.25 nM and 1 nM, respectively. Compound was present in plate wells as a 16-point 3-fold dilution series starting at a final concentration of 10 μM and incubated for 3 hours. A mixture of MAb Anti-6His-XL665 (Cisbio, 61HISXLB) and Mab anti-GST-TB cryptate (Cisbio, 61GSTTLB) was then added at a final concentration of 6.67 nM and 0.21 nM, respectively, and the plate was incubated for an additional 1.5 hours. TR-FRET signal was read on a PHERstar FSX microplate reader (Ex320 nm, Em 665/615 nm). Compounds that facilitate disruption of the KRAS-BRAF complex were identified as those eliciting a decrease in the TR-FRET ratio relative to DMSO control wells.

[2] = molecular target: KRAS G12D binding to BRAF (Homo sapiens (Human), UniProt P01116+P62937, G12D); assay: KRAS-BRAF with CYPA (500 nM) interaction assay (TR-FRET), G12D; assay type: biochemical
Chain of KRAS G12D binding to BRAF (P01116-2 other isoform, or with tags, fused parts or gaps G12D): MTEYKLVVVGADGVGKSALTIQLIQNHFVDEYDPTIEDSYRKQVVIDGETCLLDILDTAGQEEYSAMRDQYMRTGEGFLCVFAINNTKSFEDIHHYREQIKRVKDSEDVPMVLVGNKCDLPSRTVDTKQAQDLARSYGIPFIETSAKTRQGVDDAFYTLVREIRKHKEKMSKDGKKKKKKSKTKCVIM
Chain of KRAS G12D binding to BRAF (P62937 whole entry): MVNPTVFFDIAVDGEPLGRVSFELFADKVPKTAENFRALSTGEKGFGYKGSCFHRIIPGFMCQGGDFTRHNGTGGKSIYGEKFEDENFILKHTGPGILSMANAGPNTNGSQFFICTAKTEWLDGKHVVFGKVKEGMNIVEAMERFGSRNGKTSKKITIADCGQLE
Procedure: as §1

[3] = molecular target: KRAS G12V binding to BRAF (Homo sapiens (Human), UniProt P01116+P62937, G12V); assay: KRAS-BRAF with CYPA (500 nM) interaction assay (TR-FRET), G12V; assay type: biochemical
Chain of KRAS G12V binding to BRAF (P01116-2 other isoform, or with tags, fused parts or gaps G12V): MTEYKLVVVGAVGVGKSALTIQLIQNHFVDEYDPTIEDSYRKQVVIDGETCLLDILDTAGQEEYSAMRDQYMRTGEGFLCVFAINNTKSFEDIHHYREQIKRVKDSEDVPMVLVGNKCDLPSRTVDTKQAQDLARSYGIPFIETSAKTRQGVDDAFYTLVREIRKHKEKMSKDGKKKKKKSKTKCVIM
Chain of KRAS G12V binding to BRAF (P62937 whole entry): as the sequence (P62937 whole entry) above
Procedure: In this example, TR-FRET was also used to measure the compound or compound-CYPA dependent disruption of the KRAS G12C-BRAF complex. This protocol was also used to measure disruption of KRAS G12D or KRAS G12V binding to BRAF by a compound of the invention, respectively. In assay buffer containing 25 mM HEPES PH=7.4 (4-(2-hydroxyethyl)-1-piperazineethanesulfonic acid, Thermo, 15630080), 0.002% Tween20, 0.1% BSA, 100 mM NaCl, 5 mM MgCl2, 10 μM GMPPNP (Guanosine 5′-[β,γ-imido]triphosphate trisodium salt hydrate, Sigma, G0635), […], GMPPNP loaded 6His-KRAS proteins, and […], 6.25 nM and 1 nM, respectively. Compound was present in plate wells as a 16-point 3-fold dilution series starting at a final concentration of 10 μM and incubated for 3 hours. A mixture of MAb Anti-6His-XL665 (Cisbio, 61HISXLB) and Mab anti-GST-TB cryptate (Cisbio, 61GSTTLB) was then added at a final concentration of 6.67 nM and 0.21 nM, respectively, and the plate was incubated for an additional 1.5 hours. TR-FRET signal was read on a PHERstar FSX microplate reader (Ex320 nm, Em 665/615 nm). Compounds that facilitate disruption of the KRAS-BRAF complex were identified as those eliciting a decrease in the TR-FRET ratio relative to DMSO control wells.

[4] = tested on: phosphorylation of ERK, KRAS G12C in NCJ-H358 cells; assay: pERK inhibition assay, KRAS G12C; assay type: cell-based, human; conditions: Homo sapiens, 4 hours
Procedure: (§2) This assay is to measure the ability of test compounds in inhibiting the phosphorylation of ERK, the downstream signaling of KRAS G12C in NCJ-H358 cells, KRAS G12D in AGS cells, and KRAS G12V in SW620. NCJ-H358 (ATCC-CRL5807) cells, AGS (ATCC-CRL-1739) cells, SW620 (ATCC-CCL-227) cells were all grown and maintained using RPMI-1640 medium (Thermo Fisher Scientific) with 10% fetal bovine serum and 1% penicillin/streptomycin. On the day prior to compound addition, cells were plated in tissue culture-treated 96 well plates (Corning-3699) at a density of 30,000 cell/well, 20,000 cell/well, 30,000 cell/well for NCJ-H358, AGS and SW620 respectively, and allowed for attachment overnight. Diluted compounds were then added in a final concentration of 0.5% DMSO. After 4 hours of incubation, the medium was removed, 100 μL of 4% formaldehyde was added, and the assay plates were incubated at room temperature for 20 minutes. The plates were then washed once with phosphate buffered saline (PBS), and permeabilized with 100 μL of chilled methanol for 10 minutes. Non-specific antibody binding to the plates was blocked using 50 μL 1×BSA blocking buffer (Thermo-37520, 10-fold dilution by Phosphate-Buffered Saline Tween (PBST) for at least 1 hour at room temperature.
(§3) The amount of phosphor-ERK was determined using an antibody specific for phosphorylated form of ERK. Primary antibody (pERK, CST-4370, Cell Signaling Technology) was diluted 1:300 in blocking buffer, with 50 μL aliquoted to each well, and incubated overnight at 4′° C. Cells was washed five times for 5 minutes with PBST. Secondary antibody ([…] anti-rabbit IgG, CST-7074, Cell Signaling Technology) was diluted 1:1000 in blocking buffer, and 50 μL was added to each well and incubated 1-2 hrs at room temperature. Cells was washed 5 times for 5 minutes with PBST, 100 μL TMB ELISA substrate (abcam-ab171523) were added and gently shake for 20 minutes. 50 μL stop solution (abcam-ab171529) were added, and then read the signal (OD450) by EnVision.
(§4) IC50 was determined by fitting a 4-parameter sigmoidal concentration response model.

[5] = tested on: phosphorylation of ERK, KRAS G12V in SW620; assay: pERK inhibition assay, KRAS G12V; assay type: cell-based, human; conditions: Homo sapiens, SW-620, SW620, 4 hours
Procedure: as §2, §3, §4

[6] = tested on: AGS (ATCC-CRL-1739) cells; assay: Cell viability assay, G12D (AGS); assay type: cell-based, human; conditions: KRAS cell viability, 72 hrs, Cell Counting Kit-8
Procedure: (§5) The purpose of this cellular assay was to determine the effects of test compounds on the proliferation of human cancer cell lines NCI-H358 (ATCC-CRL5807) cells, AGS (ATCC-CRL-1739) cells, SW620 (ATCC-CCL-227) over a 3-day treatment period by quantifying the amount of NADPH present at endpoint using Cell Counting Kit-8.
(§6) Cells were seeded at 5,000 cells/well (NCI-H358), 2,000 cells/well (AGS) 2,000 cells/well (SW620) in 96-well assay plates (Corning-3699) and incubated overnight. On the day of the assay, diluted compounds were then added in a final concentration of 0.5% DMSO. After 72 hrs incubation, a tenth of the volume of cell counting kit 8 (Dnjindo-CK04) was added into each well. Read the signal (OD450 minus OD650) using EnVision after 2 hrs incubation. IC50 was determined by fitting a 4-parameter sigmoidal concentration response model.

[7] = tested on: SW620 (ATCC-CCL-227); assay: Cell viability assay, G12V (SW620); assay type: cell-based, human; conditions: KRAS cell viability, SW620, 72 hrs, Cell Counting Kit-8
Procedure: as §5, §6

Chain of KRAS G12C-BRAF complex (P01116-2 other isoform, or with tags, fused parts or gaps G12C): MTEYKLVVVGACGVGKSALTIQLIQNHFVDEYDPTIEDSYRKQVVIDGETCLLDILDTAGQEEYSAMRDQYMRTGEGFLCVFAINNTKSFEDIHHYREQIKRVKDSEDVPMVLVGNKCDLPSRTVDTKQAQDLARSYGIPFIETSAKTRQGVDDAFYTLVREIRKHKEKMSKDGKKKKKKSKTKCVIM
Chain of KRAS G12C-BRAF complex (P62937 whole entry): as the sequence (P62937 whole entry) above

SMILES | IC50 [1] [nM] | IC50 [2] [nM] | IC50 [3] [nM] | IC50 [4] [nM] | IC50 [5] [nM] | IC50 ([6]; Homo sapiens) [nM] | IC50 ([7]; Homo sapiens, SW-620) [nM] | IC50 [6] [nM] | IC50 [7] [nM]
CCn1c(-c2cc(N3CCN(CC(F)(F)F)CC3)cnc2[C@H](C)OC)c2c3cc(c(F)cc31)-c1csc(n1)C[C@H](NC(=O)[C@H](C(C)C)N1CCCC3(CCN(C(=O)[C@H](F)Cl)CC3)C1=O)C(=O)N1CCC[C@H](N1)C(=O)OCC(C)(C)C2 (atropisomer, axis not shown; (M)) [Example 48, (2S)-2-[9-[(2R)-2-chloro-2-fluoro-acetyl]-1-oxo-2,9-diazaspiro[5.5]undecan-2-yl]-N-[(7S,13S)-21-ethyl-24-fluoro-(20M)-20-[2-[(1S)-1-methoxyethyl]-5-[4-(2,2,2-trifluoroethyl)piperazin-1-yl]-3-pyridyl]-17,17-dimethyl-8,14-dioxo-15-oxa-4-thia-9,21,27,28-tetrazapentacyclo[17.5.2.1^2,5.1^9,13.0^22,26]octacosa-1(25),2,5(28),19,22(26),23-hexaen-7-yl]-3-methyl-butanamide] | 47 | 1030 | > 10000 | 2 | 12 | – | – | – | –
CCn1c(-c2cc(N3CCOCC3)cnc2[C@H](C)OC)c2c3cc(c(F)cc31)-c1csc(n1)C[C@H](NC(=O)[C@H](C(C)C)N1CCC3(CCN(C(=O)[C@H](F)Cl)CC3)C1=O)C(=O)N1CCC[C@H](N1)C(=O)OCC(C)(C)C2 (atropisomer, axis not shown; (M)) [Example 50, (2S)-2-[8-[(2R)-2-chloro-2-fluoro-acetyl]-1-oxo-2,8-diazaspiro[4.5]decan-2-yl]-N-[(7S,13S)-21-ethyl-24-fluoro-(20M)-20-[2-[(1S)-1-methoxyethyl]-5-morpholino-3-pyridyl]-17,17-dimethyl-8,14-dioxo-15-oxa-4-thia-9,21,27,28-tetrazapentacyclo[17.5.2.1^2,5.1^9,13.0^22,26]octacosa-1(25),2,5(28),19,22(26),23-hexaen-7-yl]-3-methyl-butanamide] | 124 | > 10000 | > 10000 | 6 | 6 | – | – | – | –
CO[C@@H](C)c1ncc(N2CCN(C)CC2)cc1-c1c2c3cc(c(F)cc3n1CC(F)(F)F)-c1csc(n1)C[C@H](NC(=O)[C@H](C(C)C)N1CCC3(CN(C(=O)[C@H](F)Cl)C3)C1=O)C(=O)N1CCC[C@H](N1)C(=O)OCC(C)(C)C2 (atropisomer, axis not shown) [Example 25, (2S)-2-[2-[(2R)-2-chloro-2-fluoro-acetyl]-5-oxo-2,6-diazaspiro[3.4]octan-6-yl]-N-[(7S,13S)-24-fluoro-20-[2-[(1S)-1-methoxyethyl]-5-(4-methylpiperazin-1-yl)-3-pyridyl]-17,17-dimethyl-8,14-dioxo-21-(2,2,2-trifluoroethyl)-15-oxa-4-thia-9,21,27,28-tetrazapentacyclo[17.5.2.1^2,5.1^9,13.0^22,26]octacosa-1(25),2,5(28),19,22(26),23-hexaen-7-yl]-3-methyl-butanamide] | 98 | 6060 | 3540 | – | – | 1650 | 89 | – | –
CCn1c(-c2cc(N3CCN(C)CC3)cnc2[C@H](C)OC)c2c3cc(c(F)cc31)-c1csc(n1)C[C@H](NC(=O)[C@H](COC1CN(C(=O)[C@H](F)Cl)C1)C(C)C)C(=O)N1CCC[C@H](N1)C(=O)OCC(C)(C)C2 (atropisomer, axis not shown; (M)) [Example 41, (2S)-2-[[1-[(2R)-2-chloro-2-fluoro-acetyl]azetidin-3-yl]oxymethyl]-N-[(7S,13S)-21-ethyl-24-fluoro-(20M)-20-[2-[(1S)-1-methoxyethyl]-5-(4-methylpiperazin-1-yl)-3-pyridyl]-17,17-dimethyl-8,14-dioxo-15-oxa-4-thia-9,21,27,28-tetrazapentacyclo[17.5.2.1^2,5.1^9,13.0^22,26]octacosa-1(25),2,5(28),19,22(26),23-hexaen-7-yl]-3-methyl-butanamide] | 88 | > 10000 | 1170 | 107 | 199 | – | – | – | –
CCn1c(-c2cc(N3CCN(C)CC3)cnc2[C@H](C)OC)c2c3cc(c(F)cc31)-c1csc(n1)C[C@H](NC(=O)[C@H](C(C)C)N1CCC[C@]3(CCN(C(=O)[C@@H](F)Cl)C3)C1=O)C(=O)N1CCC[C@H](N1)C(=O)OCC(C)(C)C2 [Example 23, (2S)-2-[(5S)-2-[(2S)-2-chloro-2-fluoro-acetyl]-6-oxo-2,7-diazaspiro[4.5]decan-7-yl]-N-[(7S,13S)-21-ethyl-24-fluoro-(20M)-20-[2-[(1S)-1-methoxyethyl]-5-(4-methylpiperazin-1-yl)-3-pyridyl]-17,17-dimethyl-8,14-dioxo-15-oxa-4-thia-9,21,27,28-tetrazapentacyclo[17.5.2.1^2,5.1^9,13.0^22,26]octacosa-1(25),2,5(28),19,22(26),23-hexaen-7-yl]-3-methyl-butanamide] | 64 | 2080 | 5390 | – | – | – | – | 322 | 90
